Data published in ChEMBL document CHEMBL4811280, “Discovery of a simplified deguelin analog as an HSP90 C-terminal inhibitor for HER2-positive breast cancer” (Bioorg Med Chem Lett, 2021).

Key:
[1] = molecular target: T1, Heat shock protein HSP90 (Homo sapiens, UniProt P07900+P08238); test: Inhibition of HSP90 at C-terminus in trastuzumab-sensitive human BT-474 cells assessed as downregulation of Akt protein expression incubated for 72 hrs by Western blot analysis; format: cell-based; conditions: dose 2-10 µM
[2] = molecular target: T1, Heat shock protein HSP90; test: Inhibition of HSP90 at C-terminus in trastuzumab-resistant human […] cells assessed as downregulation of cyclinD1 protein expression incubated for 72 hrs by Western blot analysis; format: cell-based; conditions: JIMT-1, dose 2-10 µM
[3] = molecular target: T1, Heat shock protein HSP90; test: Inhibition of HSP90 at C-terminus in trastuzumab-resistant human […] cells assessed as downregulation of Akt protein expression incubated for 72 hrs by Western blot analysis; format: cell-based; conditions: JIMT-1, dose 2-10 µM
[4] = system: JIMT-1; test: Antiproliferative activity against trastuzumab-resistant HER2-positive human JIMT-1 cells assessed as cell viability at 10 uM after 72 hrs by MTS assay; format: functional; conditions: read-out: Activity
[5] = system: SK-BR-3; test: Antiproliferative activity against trastuzumab-sensitive human SK-BR-3 cells assessed as reduction in cell viability after 72 hrs by MTS assay; format: functional, cell-based; conditions: dose 0.1-20 µM
[6] = molecular target: T1, Heat shock protein HSP90; test: Inhibition of HSP90 at N-terminus in human BT-474 cells assessed as increase in cytosolic HSP90 protein level at 10 uM incubated for 24 hrs by immunostaining analysis; format: cell-based; conditions: bt-474, 24 h
[7] = system: BT-474; test: Antiproliferative activity against trastuzumab-sensitive HER2-positive human BT-474 cells assessed as cell viability at 10 uM after 72 hrs by MTS assay; format: functional; conditions: read-out: Activity
[8] = system: MDA-MB-453; test: Antiproliferative activity against trastuzumab-resistant human MDA-MB-453 cells assessed as reduction in cell viability after 72 hrs by MTS assay; format: functional, cell-based; conditions: dose 0.1-20 µM
[9] = system: JIMT-1; test: Antiproliferative activity against trastuzumab-resistant HER2-positive human JIMT-1 cells assessed as reduction in cell viability after 72 hrs by MTS assay; format: functional, cell-based; conditions: dose 0.1-20 µM
[10] = molecular target: T1, Heat shock protein HSP90; test: Inhibition of HSP90 at N-terminus in human BT-474 cells assessed as increase in nuclear HSF1 protein level at 10 uM incubated for 24 hrs by immunostaining analysis; format: cell-based; conditions: bt-474, 24 h
[11] = molecular target: T1, Heat shock protein HSP90; test: Inhibition of HSP90 at C-terminus in trastuzumab-resistant human […] cells assessed as downregulation of HER2 protein expression incubated for 72 hrs by Western blot analysis; format: cell-based; conditions: JIMT-1, dose 2-10 µM
[12] = system: HEK293; test: Cytotoxicity against human HEK293 cells assessed as reduction in cell viability at 10 uM after 72 hrs by MTS assay; format: cell-based; conditions: hek293, 72 h
[13] = system: BT-474; test: Antiproliferative activity against trastuzumab-sensitive HER2-positive human BT-474 cells assessed as reduction in cell viability after 72 hrs by MTS assay; format: functional, cell-based; conditions: dose 0.1-20 µM
[14] = molecular target: T1, Heat shock protein HSP90; test: Inhibition of HSP90 at C-terminus in trastuzumab-sensitive human BT-474 cells assessed as downregulation of cyclinD1 protein expression incubated for 72 hrs by Western blot analysis; format: cell-based; conditions: dose 2-10 µM
[15] = molecular target: T1, Heat shock protein HSP90; test: Inhibition of HSP90 at C-terminus in trastuzumab-sensitive human BT-474 cells assessed as downregulation of HER2 protein expression incubated for 72 hrs by Western blot analysis; format: cell-based; conditions: dose 2-10 µM
[16] = molecular target: T1, Heat shock protein HSP90; test: Inhibition of HSP90 at C-terminus in trastuzumab-sensitive human BT-474 cells assessed as downregulation of survivin protein expression incubated for 72 hrs by Western blot analysis; format: cell-based; conditions: dose 2-10 µM
[17] = molecular target: T1, Heat shock protein HSP90; test: Inhibition of HSP90 at C-terminus in trastuzumab-resistant human […] cells assessed as downregulation of survivin protein expression incubated for 72 hrs by Western blot analysis; format: cell-based; conditions: JIMT-1, dose 2-10 µM

- inhibition [1]: Dose-Dependent Effect
- inhibition [2]: Dose-Dependent Effect
- inhibition [3]: Dose-Dependent Effect
- inhibition (INH) [6]: Not Active
- inhibition (INH) [10]: Not Active
- inhibition [11]: Dose-Dependent Effect
- inhibition [14]: Dose-Dependent Effect
- inhibition [15]: Dose-Dependent Effect
Compound: COc1cc2c(C(OC(=O)C3CC3)c3ccc4c(c3OC)C=CC(C)(C)O4)ccnc2cc1OCCCN1CCN(C)CC1 (configuration not stated)
- viability at 10 µM [4]: < 20%
- Activity [5]: Dose-Dependent Effect
- viability at 10 µM [7]: < 20%
- Activity [8]: Dose-Dependent Effect
- Activity [9]: Dose-Dependent Effect
- Activity [12]: Toxic
- Activity [13]: Dose-Dependent Effect
- inhibition [16]: Dose-Dependent Effect
- inhibition [17]: Dose-Dependent Effect
